Columns and labels:
Human VR1 Receptor [1] = target: T1, Human VR1 Receptor (Homo sapiens, UniProt Q8NER1); test: Inhibition of pH-induced activation of VR1; assay type: cell-based; settings: mean ± spread, (n) = number of experiments, read-out: Inhibition of pH-induced activation IC50 (nM) Mean IC50 ± SEC (n)
From the text: (§1) Binding of the Thiadiazolylpiperazine Compounds to the Human VR1 Receptor
(§2) Methods for assaying compounds capable of inhibiting VR1 are well known to those skilled in the art, for example, those methods disclosed in U.S. Pat. No. 6,239,267 to Duckworth et al.; U.S. Pat. No. 6,406,908 to McIntyre et al.; or U.S. Pat. No. 6,335,180 to Julius et al.

Human VR1 Receptor [2] = target: T1, Human VR1 Receptor; test: Inhibition of capsaicin-induced activation of VR1; assay type: cell-based; settings: mean ± spread, (n) = number of experiments, read-out: Inhibition of capsaicin-induced activation IC50 (nM) Mean IC50 ± SEC (n)
From the text: as §1, §2

T1 sequence (Q8NER1 whole entry): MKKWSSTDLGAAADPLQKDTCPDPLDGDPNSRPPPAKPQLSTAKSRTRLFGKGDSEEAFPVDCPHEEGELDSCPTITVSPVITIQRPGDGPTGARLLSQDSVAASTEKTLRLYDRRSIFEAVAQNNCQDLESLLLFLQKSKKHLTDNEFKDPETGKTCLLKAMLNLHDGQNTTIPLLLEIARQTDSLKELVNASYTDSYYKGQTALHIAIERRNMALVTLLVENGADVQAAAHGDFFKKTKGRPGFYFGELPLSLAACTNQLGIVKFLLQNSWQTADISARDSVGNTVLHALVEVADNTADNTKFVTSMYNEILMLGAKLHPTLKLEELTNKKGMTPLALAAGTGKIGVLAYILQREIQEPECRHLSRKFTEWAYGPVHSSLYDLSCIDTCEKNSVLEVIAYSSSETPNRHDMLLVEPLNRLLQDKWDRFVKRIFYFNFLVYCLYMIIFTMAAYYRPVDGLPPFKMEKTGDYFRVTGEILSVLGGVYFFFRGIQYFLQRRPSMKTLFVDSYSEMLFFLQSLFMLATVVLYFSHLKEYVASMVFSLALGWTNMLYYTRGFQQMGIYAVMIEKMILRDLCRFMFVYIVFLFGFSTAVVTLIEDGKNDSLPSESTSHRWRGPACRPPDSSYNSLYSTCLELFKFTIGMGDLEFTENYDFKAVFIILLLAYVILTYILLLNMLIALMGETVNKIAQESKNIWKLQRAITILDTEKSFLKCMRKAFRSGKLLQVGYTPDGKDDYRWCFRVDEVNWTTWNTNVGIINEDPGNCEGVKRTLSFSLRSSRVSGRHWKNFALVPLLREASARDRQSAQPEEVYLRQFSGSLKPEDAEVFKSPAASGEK

IC50 (Human VR1 Receptor [1]): 668 ± 265 nM
IC50 (Human VR1 Receptor [2]): 374 ± 233 nM
SMILES: CC(C)c1ccc(NC(=O)N2CCN(c3nsnc3Cl)CC2)cc1

Reference: patent publication US7342017B2, “1,2,5-Thiadiazol-3-yl-piperazine therapeutic agents useful for treating pain, depression and anxiety” (Euro-Celtique S.A., priority 2002, dated 2008)
